For data set [1] the following is noted: cited from earlier work.
Data set [2] in a line: Inhibition and re-activation of HF: quartz dissolution. The following applies: by themselves. The protocol:
HF was inhibited by the addition of monoethanolamine (MEA), until no quartz (SiO2) was dissolved. A molar ratio of 1 MEA to HF or greater is necessary to inhibit HF's ability to dissolve quartz, and a ratio of 1.1 will used in further testing to provide a reasonable safety margin.
The inhibited HF solution can regain its quartz dissolving potential through the addition of an acidic solution, such as HCl.
To evaluate the performance of mud acids created with acid compositions comprising HCl:MEA in ratios of 4.4:1; 6.3:1; and 11.3:1, inhibited HF mud acids were prepared using HCl and acid compositions comprising HCl:MEA in ratios of 4.4:1; and 11.3:1 with various amount of free HCl (6 to 12%).

Structures can show the parent of a compound that is named as a salt.

With `F[Si-2](F)(F)(F)(F)F.[Na+].[Na+]` [Na2SiF6], the “concentration above which precipitation occurs / solubility” value in data set [1] was 6400 µg/mL.

As to `Cl` [HCl], in data set [2], the quartz dissolved result is given as “essentially no quartz”.
